# Measured values: patent publication US8563589B2, “Methods of treating neuropathic pain with benzimidazole derivative agonists of PPARgamma” (priority 2009, dated 2013)
# How the values were obtained:
# neurogenic pain model = details: reported in WO2006085686; cited from earlier work
# [1] = system: Bennett neuropathic pain model; test: Bennett (chronic constriction injury) neuropathic pain model, cold plate / cold allodynia test; assay type: in vivo, rat; details: for latency time to removal of the affected paw from a cold plate, difference from vehicle control: dosed orally at 100 mg/kg, measured one hour later, cold allodynia test, ANOVA p<0.05 (FIG. 1)
# Description: FIG. 1—Efficacy of PPARγ agonists Muraglitizar and Tesaglitizar in Bennett animal model for neuropathic pain. PPAR agonist compounds and positive control carbamazepine were dosed orally at 100 mg/kg, and pain behavior was measured one hour later with the cold allodynia test, as the latency time to removal of the affected paw from a cold plate. Statistical analysis of raw data was performed by analysis of variance (ANOVA), with significance threshold set at p<0.05. Analgesic activity was determined as a statistically significant increase in latency time to paw withdrawal in treated animals as compared to vehicle-treated animals. Comparisons for statistically significant differences in latency times were made between PPAR agonist compound-treated animals and vehicle controls, between carbamazepine-treated animals and vehicle controls, and between PPAR agonist compound-treated animals and carbamazepine-treated animals from the same experiment. All statistically significant differences between compared groups are indicated by the brackets, with *=p<0.05, and **=p<0.001.
# FIG. 3—Effect of carbamazepine (+ control) and 3-(2,4-dichlorobenzyl)-2-methyl-N-(pentylsulfonyl)-3H-benzimidazole-5-carboxamide (“Atx” in Figure) on the latency to lift paw from the cold plate 60 min following compound injection, in rats with the Bennett model of neuropathic pain. Data represent mean±SEM. Statistical analysis of data as for FIG. 1; *=p<0.05.
# These models are based on three surgical procedures: (i) the spinal nerve ligation (SNL) [Kim, S, and J. Chung, An experimental model for peripheral neuropathy produced by segmental spinal nerve ligation in the rat. Pain, 1992. 50: p. 355-363]; (ii) the partial sciatic nerve lesion (Seltzer) [Seltzer, Z., R. Dubner, and Y. Shir, A novel behavioral model of neuropathic pain disorders produced in rats by partial sciatic nerve injury. Pain, 1990. 43: p. 205-218]; (iii) and the chronic constriction injury [Bennett, G. and Y. Xie, A peripheral mononeuropathy in rat that produces disorders of pain sensation like those seen in man. Pain, 1988. 33: p. 87-107]. The Bennett model was used, as described below.
# Young adult, male Sprague Dawley rats (200-250 g) from Harlan were used. Upon receipt, animals were assigned unique identification numbers (tail marked) and housed 2-3 per cage in suspended polycarbonate rat cages with filter paper covering mesh shelf. Rats were acclimated for up to 7 days prior to surgery. […]
# The apparatus consists of a cold plate (Ugo Basile Hot/Cold Plate) measuring 25 (w)×37 (d)×16 (h) cm with a 10 cm thick aluminum circular plate. […] Baseline responses were measured on the day prior to drug administration. Each animal was tested by placing it on the cold plate (set to 4 C) and the latency of paw withdrawal was recorded. […]
# type 2 diabetes = details: Phase II; quoted from Meinke et al., Annual Reports in Medicinal Chemistry (2006); cited from earlier work
structure (smiles),measurement,setting,value
"O=C(Nc1ccccc1)c1cc([N+](=O)[O-])ccc1Cl [GW9662, 2-chloro-5-nitro-N-phenylbenzamide]",activity in a neurogenic pain model,neurogenic pain model,demonstrates activity in a neurogenic pain model
CCO[C@@H](Cc1ccc(OCCc2ccc(OS(C)(=O)=O)cc2)cc1)C(=O)O [Tesaglitazar],"latency time to removal of the affected paw from a cold plate, difference from vehicle control",[1],neither of Muraglitazar or Tesaglitazar showed any statistically significant difference from a vehicle control
"CCCCCS(=O)(=O)NC(=O)c1ccc2nc(C)n(Cc3ccc(Cl)cc3Cl)c2c1 [Atx, 3-(2,4-dichlorobenzyl)-2-methyl-N-(pentylsulfonyl)-3H-benzimidazole-5-carboxamide]","latency to lift paw from the cold plate, analgesic activity compared to carbamazepine (+ control)","[1]; 60 min following compound injection, rats with the Bennett model (FIG. 3)",not significantly different from carbamazepine
same,"latency to lift paw from the cold plate, analgesic activity compared to vehicle","[1]; 60 min following compound injection, rats with the Bennett model, p<0.05 (FIG. 3)",analgesic activity which is significantly greater than vehicle alone
same,advantage for type 2 diabetes in clinical trials,type 2 diabetes,no advantage [for type 2 diabetes] was demonstrated in clinical trials
COc1ccc(OC(=O)N(CC(=O)O)Cc2ccc(OCCc3nc(-c4ccccc4)oc3C)cc2)cc1 [Muraglitazar],"latency time to removal of the affected paw from a cold plate, difference from vehicle control",[1],neither of Muraglitazar or Tesaglitazar showed any statistically significant difference from a vehicle control
